Laboratory results from patent US8334364B2, “High-molecular weight derivative of nucleic acid antimetabolite” (priority 2006, dated 2012).
Where a name gives a salt, the structure may show the parent alone.

Assays:
[1] = test system: mouse colon cancer, Colon26; experiment: Antitumor effect against tumor-bearing mouse (2); format: in vivo; conditions: once intravenously, 8th day after initiation of administration, average ± SD, volume on day of initiation = 1.0
From the text: Tumor of mouse colon cancer, Colon26, maintained by serial subcutaneous subculture in mice, was minced into about 2-mm square blocks, and the blocks were transplanted subcutaneously on the dorsal part of a mouse. On the 7th day after tumor transplantation, the compound of Example 3 (indicated as Compound 3 in Table 3) and the compound of Example 4 (indicated as Compound 4 in Table 3), respectively dissolved in physiological saline, and gemcitabine hydrochloride as a control drug dissolved in a 5% glucose injection solution were respectively administered once intravenously at the doses indicated in Table 3. The tumor volumes on the day of initiation of administration and on the 8th day after the initiation of administration were calculated in the same manner as in Test Example 3, and the relative tumor volumes on the day of initiation of administration and on the 8th day after the initiation of administration were determined.

[2] = test system: mouse colon cancer, Colon26; experiment: Antitumor effect against tumor-bearing mouse (1); format: in vivo; conditions: once intravenously, 7th day after initiation of administration, average ± SD, volume on day of initiation = 1.0
From the text: Tumor of mouse colon cancer, Colon26, maintained by serial subcutaneous subculture in mice, was minced into about 2-mm square blocks, and the blocks were transplanted subcutaneously on the dorsal part of a mouse using a trocar. On the 7th day after tumor transplantation, the compound of Example 1 (indicated as Compound 1 in Table 2) and the compound of Example 2 (indicated as Compound 2 in Table 2), respectively dissolved in physiological saline, and gemcitabine hydrochloride as a control drug dissolved in a 5% glucose injection solution were respectively administered once intravenously at the doses indicated in Table 2. The tumor volumes on the day of initiation of administration and on the 7th day after the initiation of administration were calculated by the following equation, and the relative tumor volumes on the day of initiation of administration and on the 7th day after the initiation of administration were determined.

[3] = dose 200 mg/kg in terms of gemcitabine hydrochloride

Structure (SMILES): Nc1ccn([C@@H]2O[C@H](CO)[C@@H](O)C2(F)F)c(=O)n1 [Control drug, gemcitabine hydrochloride]
- Relative tumor volume ([1]; dose 40 mg/kg in terms of gemcitabine hydrochloride): 5.3 ± 1.1
- Relative tumor volume [1, 3]: 4.8 ± 1.7
- Relative tumor volume ([2]; dose 100 mg/kg in terms of gemcitabine hydrochloride): 3.9 ± 0.5
- Relative tumor volume [2, 3]: 3.4 ± 0.6
